Reference: patent US20090311217A1, “3-SUBSTITUTED-1H-INDOLE COMPOUNDS, THEIR USE AS MTOR KINASE AND PI3 KINASE INHIBITORS, AND THEIR SYNTHESES” (priority 2008, published 2009)
Where two headings read alike, the source gives them in different places.

Assays:
Format in all cases: biochemical
PI3K-delta = PI3K-delta (Homo sapiens, UniProt O00329); test: PI3K-delta fluorescence polarization assay
PI3K-alpha = PI3K-alpha (Homo sapiens, UniProt P42336); test: PI3K-alpha fluorescence polarization assay
PI3K-gamma = PI3K-gamma (Homo sapiens, UniProt P48736); test: PI3K-gamma fluorescence polarization assay; details: PI3Kγ Avg. IC50
Summary of the method: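 FP competition read-out: PIP3 produced displaces BODIPY-TMR-IP4 (5 nM) from GST-GRP1 PH domain (100 nM). Kinase step: 5 ng enzyme, 2.5 μM diC8-PIP2, 25 μM ATP, pH 7 HEPES/MgCl2, 1 h, 25° C; EDTA stop.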

PI3K-beta = PI3K-beta (Homo sapiens, UniProt P42338); test: PI3K-beta fluorescence polarization assay; details: read-out: PI3Kβ Avg. IC50
Protocol: PI3K-Alpha, PI3K-Beta, PI3K-Gamma, and PI3K-delta Fluorescence Polarization Assay Protocols
PI3-Kinase reactions were performed in 5 mM HEPES, pH 7, 2.5 mM MgCl2, and 25 μM ATP, with diC8-PI(4,5)P2 (Echelon, Salt Lake City Utah) as substrate. Nunc 384-well black polypropylene fluorescent plates were used for PI3K assays. Reactions were quenched by the addition of EDTA to a final concentration of 10 mM. Final reaction volumes were 10 μl. For evaluation of PI3K inhibitors, 5 ng of enzyme (PI3K-alpha, beta, gamma, or delta) and 2.5 μM of substrate was used per […] reaction volume, and inhibitor concentrations ranged from 100 μM to 20 μM; the final level of DMSO in reactions never exceeded 2%. Reactions were allowed to proceed for one hour at 25° C. After 1 hour, GST-tagged GRP1 (general receptor for phosphoinositides) PH domain fusion protein was added to a final concentration of 100 nM, and BODIPY-TMRI(1,3,4,5)P4 (Echelon) was also added to a final concentration of 5 nM. Final sample volumes were 25 μl with a final DMSO concentration of 0.8%. Assay Plates were read on Perkin-Elmer Envision plate readers with appropriate filters for Tamra [BODIPY-TMRI(1,3,4,5)P4]. Data obtained were used to calculate enzymatic activity and enzyme inhibition by inhibitor compounds.

human TOR = target: T1, human TOR (Homo sapiens, UniProt P42345); test: mTOR enzyme assay (DELFIA, His6-S6K substrate)
T1 construct: FLAG

[1] = read-out: mTOR Kinase Avg. IC50

Sequence of PI3K-delta (O00329 whole entry, species assumed): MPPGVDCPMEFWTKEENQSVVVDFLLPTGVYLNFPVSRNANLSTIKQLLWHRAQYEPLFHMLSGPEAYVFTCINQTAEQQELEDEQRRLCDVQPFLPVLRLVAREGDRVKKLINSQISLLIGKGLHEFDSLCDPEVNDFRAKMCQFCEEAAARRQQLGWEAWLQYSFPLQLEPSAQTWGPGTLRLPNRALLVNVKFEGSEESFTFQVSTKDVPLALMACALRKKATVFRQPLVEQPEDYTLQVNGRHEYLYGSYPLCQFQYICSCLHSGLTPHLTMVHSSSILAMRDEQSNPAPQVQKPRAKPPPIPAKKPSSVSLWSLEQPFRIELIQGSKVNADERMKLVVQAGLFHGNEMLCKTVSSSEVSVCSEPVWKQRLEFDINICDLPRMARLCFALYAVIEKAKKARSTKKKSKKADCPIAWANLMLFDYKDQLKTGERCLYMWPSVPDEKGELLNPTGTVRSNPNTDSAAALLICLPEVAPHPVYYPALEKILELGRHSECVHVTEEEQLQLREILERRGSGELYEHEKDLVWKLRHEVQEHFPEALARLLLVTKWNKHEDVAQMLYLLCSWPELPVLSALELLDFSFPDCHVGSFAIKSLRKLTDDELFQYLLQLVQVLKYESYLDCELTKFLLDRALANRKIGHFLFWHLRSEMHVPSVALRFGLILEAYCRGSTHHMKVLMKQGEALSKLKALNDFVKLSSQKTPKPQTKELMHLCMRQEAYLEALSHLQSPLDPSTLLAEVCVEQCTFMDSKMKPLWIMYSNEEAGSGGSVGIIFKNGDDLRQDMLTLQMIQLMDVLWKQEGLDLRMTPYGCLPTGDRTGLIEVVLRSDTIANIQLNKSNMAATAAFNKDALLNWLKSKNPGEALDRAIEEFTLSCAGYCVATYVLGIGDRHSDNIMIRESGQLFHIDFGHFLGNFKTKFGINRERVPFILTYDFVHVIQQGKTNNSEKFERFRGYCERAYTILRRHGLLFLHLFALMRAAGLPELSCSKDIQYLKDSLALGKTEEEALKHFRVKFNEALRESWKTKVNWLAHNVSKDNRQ
Sequence of PI3K-delta (P27986 whole entry partner, species assumed): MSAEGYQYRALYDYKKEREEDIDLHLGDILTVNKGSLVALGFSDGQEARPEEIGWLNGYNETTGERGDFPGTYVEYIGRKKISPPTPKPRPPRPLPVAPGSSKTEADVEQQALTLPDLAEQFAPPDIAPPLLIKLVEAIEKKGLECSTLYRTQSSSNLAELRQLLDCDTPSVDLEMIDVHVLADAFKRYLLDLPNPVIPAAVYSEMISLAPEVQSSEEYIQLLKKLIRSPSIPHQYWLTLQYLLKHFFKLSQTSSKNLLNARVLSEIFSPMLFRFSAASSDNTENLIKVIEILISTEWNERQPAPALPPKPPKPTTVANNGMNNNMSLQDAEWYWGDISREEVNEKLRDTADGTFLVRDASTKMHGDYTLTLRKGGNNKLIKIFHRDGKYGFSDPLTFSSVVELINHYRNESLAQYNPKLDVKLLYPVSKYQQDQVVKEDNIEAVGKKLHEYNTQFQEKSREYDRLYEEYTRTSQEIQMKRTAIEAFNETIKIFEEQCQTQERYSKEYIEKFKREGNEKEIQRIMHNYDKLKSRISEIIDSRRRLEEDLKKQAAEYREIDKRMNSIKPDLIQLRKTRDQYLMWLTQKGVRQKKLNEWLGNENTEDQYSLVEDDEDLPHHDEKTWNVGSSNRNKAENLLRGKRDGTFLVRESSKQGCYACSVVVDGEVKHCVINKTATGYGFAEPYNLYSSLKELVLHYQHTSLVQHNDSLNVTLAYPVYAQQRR
Sequence of PI3K-gamma (P48736 whole entry, species assumed, the tested form may be a part): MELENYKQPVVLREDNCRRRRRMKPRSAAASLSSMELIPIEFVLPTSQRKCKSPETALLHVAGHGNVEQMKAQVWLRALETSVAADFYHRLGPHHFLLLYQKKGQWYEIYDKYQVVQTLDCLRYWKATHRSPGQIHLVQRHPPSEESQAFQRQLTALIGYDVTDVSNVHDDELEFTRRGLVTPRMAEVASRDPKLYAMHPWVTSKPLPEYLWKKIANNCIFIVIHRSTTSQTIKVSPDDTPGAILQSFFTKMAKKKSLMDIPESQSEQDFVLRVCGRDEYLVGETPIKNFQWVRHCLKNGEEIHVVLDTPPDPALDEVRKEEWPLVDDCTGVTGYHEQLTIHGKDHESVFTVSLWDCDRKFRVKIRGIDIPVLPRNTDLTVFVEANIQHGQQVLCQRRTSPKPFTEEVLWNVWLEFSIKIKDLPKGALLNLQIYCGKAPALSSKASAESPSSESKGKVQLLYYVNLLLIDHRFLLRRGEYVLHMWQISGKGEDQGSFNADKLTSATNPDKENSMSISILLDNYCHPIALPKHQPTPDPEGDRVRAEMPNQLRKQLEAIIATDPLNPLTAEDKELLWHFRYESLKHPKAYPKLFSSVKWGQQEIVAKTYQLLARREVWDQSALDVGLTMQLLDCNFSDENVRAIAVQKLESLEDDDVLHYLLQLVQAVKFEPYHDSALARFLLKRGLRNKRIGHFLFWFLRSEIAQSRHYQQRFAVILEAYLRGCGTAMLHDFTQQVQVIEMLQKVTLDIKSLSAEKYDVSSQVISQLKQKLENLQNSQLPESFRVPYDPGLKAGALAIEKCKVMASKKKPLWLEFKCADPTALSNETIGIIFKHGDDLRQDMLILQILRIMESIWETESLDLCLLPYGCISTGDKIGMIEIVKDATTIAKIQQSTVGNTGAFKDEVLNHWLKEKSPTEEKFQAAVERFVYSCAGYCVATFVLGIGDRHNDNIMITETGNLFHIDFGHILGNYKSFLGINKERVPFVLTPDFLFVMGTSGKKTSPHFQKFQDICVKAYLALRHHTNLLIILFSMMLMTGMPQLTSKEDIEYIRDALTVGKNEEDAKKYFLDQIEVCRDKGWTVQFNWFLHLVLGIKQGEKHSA
Sequence of PI3K-alpha (P42336 whole entry, species assumed): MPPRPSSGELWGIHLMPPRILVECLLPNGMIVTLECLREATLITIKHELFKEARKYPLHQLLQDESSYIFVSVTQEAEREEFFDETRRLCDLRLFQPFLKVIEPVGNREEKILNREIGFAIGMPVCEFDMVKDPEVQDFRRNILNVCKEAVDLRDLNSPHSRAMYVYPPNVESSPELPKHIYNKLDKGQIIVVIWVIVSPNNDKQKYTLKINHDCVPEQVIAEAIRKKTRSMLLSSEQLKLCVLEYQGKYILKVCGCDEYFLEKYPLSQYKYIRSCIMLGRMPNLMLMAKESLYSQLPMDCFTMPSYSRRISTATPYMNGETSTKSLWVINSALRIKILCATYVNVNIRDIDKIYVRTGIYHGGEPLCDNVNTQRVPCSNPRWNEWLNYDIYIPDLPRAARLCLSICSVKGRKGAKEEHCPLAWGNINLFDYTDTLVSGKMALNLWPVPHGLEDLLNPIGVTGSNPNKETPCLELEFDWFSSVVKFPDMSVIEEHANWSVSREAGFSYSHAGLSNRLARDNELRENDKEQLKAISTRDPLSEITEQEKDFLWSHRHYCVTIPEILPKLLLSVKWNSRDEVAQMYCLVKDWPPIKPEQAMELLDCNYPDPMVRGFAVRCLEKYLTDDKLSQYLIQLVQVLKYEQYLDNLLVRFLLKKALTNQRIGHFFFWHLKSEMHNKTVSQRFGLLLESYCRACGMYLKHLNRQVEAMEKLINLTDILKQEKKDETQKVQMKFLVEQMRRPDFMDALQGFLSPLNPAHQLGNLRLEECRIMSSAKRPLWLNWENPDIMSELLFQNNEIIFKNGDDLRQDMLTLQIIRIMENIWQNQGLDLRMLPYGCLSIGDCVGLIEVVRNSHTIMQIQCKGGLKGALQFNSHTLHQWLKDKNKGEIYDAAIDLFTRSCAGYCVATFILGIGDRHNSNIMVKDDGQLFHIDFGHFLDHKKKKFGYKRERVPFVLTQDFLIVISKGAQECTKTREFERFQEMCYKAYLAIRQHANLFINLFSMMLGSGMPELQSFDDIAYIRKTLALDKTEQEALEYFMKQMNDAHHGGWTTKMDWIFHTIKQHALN
Sequence of PI3K-alpha (P27986 whole entry partner, species assumed): as the sequence (P27986 whole entry partner, species assumed) above
Sequence of PI3K-beta (P42338 whole entry, species assumed): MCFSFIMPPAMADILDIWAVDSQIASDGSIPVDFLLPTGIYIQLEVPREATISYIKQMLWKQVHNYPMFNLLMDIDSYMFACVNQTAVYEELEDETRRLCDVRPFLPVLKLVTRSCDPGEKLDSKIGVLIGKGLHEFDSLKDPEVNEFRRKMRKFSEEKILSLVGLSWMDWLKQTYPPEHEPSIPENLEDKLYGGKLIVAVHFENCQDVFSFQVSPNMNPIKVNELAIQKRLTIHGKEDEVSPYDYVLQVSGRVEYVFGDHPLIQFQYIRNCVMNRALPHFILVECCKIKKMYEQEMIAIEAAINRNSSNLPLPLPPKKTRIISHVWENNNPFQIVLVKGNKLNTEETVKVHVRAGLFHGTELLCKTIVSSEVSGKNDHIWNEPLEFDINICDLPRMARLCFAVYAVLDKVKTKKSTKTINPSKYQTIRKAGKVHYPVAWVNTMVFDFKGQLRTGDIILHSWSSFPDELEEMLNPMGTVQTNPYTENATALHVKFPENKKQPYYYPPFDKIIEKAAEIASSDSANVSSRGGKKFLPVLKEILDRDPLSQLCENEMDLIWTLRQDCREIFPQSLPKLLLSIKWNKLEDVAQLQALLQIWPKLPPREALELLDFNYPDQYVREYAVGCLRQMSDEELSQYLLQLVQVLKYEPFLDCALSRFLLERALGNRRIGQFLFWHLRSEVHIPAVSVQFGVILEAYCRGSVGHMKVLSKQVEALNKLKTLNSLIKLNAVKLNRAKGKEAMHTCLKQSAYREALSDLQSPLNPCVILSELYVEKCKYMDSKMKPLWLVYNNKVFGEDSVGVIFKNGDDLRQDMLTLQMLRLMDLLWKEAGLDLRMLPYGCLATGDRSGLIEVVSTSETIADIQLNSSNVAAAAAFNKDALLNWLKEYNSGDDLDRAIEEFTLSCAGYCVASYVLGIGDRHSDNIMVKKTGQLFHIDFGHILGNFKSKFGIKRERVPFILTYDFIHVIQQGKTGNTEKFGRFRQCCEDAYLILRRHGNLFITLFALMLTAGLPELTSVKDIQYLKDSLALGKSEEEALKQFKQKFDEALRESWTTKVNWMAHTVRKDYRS
Sequence of PI3K-beta (P27986 whole entry partner, species assumed): as the sequence (P27986 whole entry partner, species assumed) above

IC50 (PI3K-delta; read-out: PI3Kδ Avg. IC50) [nM]	IC50 (PI3K-gamma) [nM]	IC50 (PI3K-beta) [nM]	IC50 (human TOR; [1]) [nM]	IC50 (PI3K-alpha; read-out: PI3Kα Avg. IC50) [nM]	SMILES	IC50 (PI3K-alpha; PI3Kα Avg. IC50) [nM]	IC50 (human TOR; mTOR Kinase Avg. IC50) [nM]	IC50 (PI3K-delta) [nM]
2.8	321	18	< 23	4.3	COc1ccc2c(c1)c(C=C1Oc3cc(O)cc(O)c3C1=O)c(C)n2CCN1CCN(CCO)CC1 [Example 109, 4,6-dihydroxy-2-[(1-{2-[4-(2-hydroxyethyl)piperazin-1-yl]ethyl}-5-methoxy-2-methyl-1H-indol-3-yl)methylene]-1-benzofuran-3(2H)-one]			
6.5	283	32	17.5	9.3	COc1ccc2c(c1)c(C=C1Oc3cc(O)cc(O)c3C1=O)c(C)n2CCN(C)C [Example 110, 2-({1-[2-(dimethylamino)ethyl]-5-methoxy-2-methyl-1H-indol-3-yl}methylene)-4,6-dihydroxy-1-benzofuran-3(2H)-one]			
21.5	976	169	215	36.3	COc1ccc2c(c1)c(C=C1Oc3cc(O)cc(O)c3C1=O)cn2CCN1CCN(CCO)CC1 [Example 111, 4,6-dihydroxy-2-[(1-{2-[4-(2-hydroxyethyl)piperazin-1-yl]ethyl}-5-methoxy-1H-indol-3-yl)methylene]-1-benzofuran-3(2H)-one]			
8.5	1190	136	980	39.3	COc1ccc2c(c1)c(C=C1Oc3cc(O)cc(O)c3C1=O)cn2CCCCN1CCOCC1 [Example 115, 4,6-dihydroxy-2-{[5-methoxy-1-(4-morpholin-4-ylbutyl)-1H-indol-3-yl]methylene}-1-benzofuran-3(2H)-one]			
5	1340	119	1420	37	COc1ccc2c(c1)c(C=C1Oc3cc(O)cc(O)c3C1=O)cn2CCCCN(C)C [Example 116, 2-({1-[4-(dimethylamino)butyl]-5-methoxy-1H-indol-3-yl}methylene)-4,6-dihydroxy-1-benzofuran-3(2H)-one]			
59	180	46	1700	28	COC(=O)c1ccc2[nH]cc(C=C3Oc4cc(O)cc(O)c4C3=O)c2c1 [Example 166, methyl 3-[(4,6-dihydroxy-3-oxo-1-benzofuran-2(3H)-ylidene)methyl]-1H-indole-5-carboxylate]			
193	544	155	190	102	COc1cc2c(C=C3Oc4cc(O)cc(O)c4C3=O)c(C)[nH]c2cc1C [Example 184, 4,6-dihydroxy-2-[(5-methoxy-2,6-dimethyl-1H-indol-3-yl)methylene]-1-benzofuran-3(2H)-one]			
38	403	96.5	130	32.3	COc1cc2c(C=C3Oc4cc(O)cc(O)c4C3=O)c(C)n(C)c2cc1C [Example 185, 4,6-dihydroxy-2-[(5-methoxy-1,2,6-trimethyl-1H-indol-3-yl)methylene]-1-benzofuran-3(2H)-one]			
< 2.5	764	14	300	17	COc1ccc2c(c1)c(/C=C1\Oc3cc(O)cc(O)c3C1=O)c(C1CC1)n2CCN1CCN(C)CC1 [Example 302, (2Z)-2-({2-Cyclopropyl-5-methoxy-1-[2-(4-methylpiperazin-1-yl)ethyl]-1H-indol-3-yl}methylene)-4,6-dihydroxy-1-benzofuran-3(2H)-one]			
< 2	70	3.5	1.93	2.2	COc1ccc2c(c1)c(/C=C1\Oc3cc(O)ccc3C1=O)c(C)n2CCN1CCN(C)CC1 [Example 303, (2Z)-6-Hydroxy-2-({5-methoxy-2-methyl-1-[2-(4-methylpiperazin-1-yl)ethyl]-1H-indol-3-yl}methylene)-1-benzofuran-3(2H)-one]			
17	65	128	62	54	COc1ccc2[nH]c(-c3ccccc3)c(/C=C3\Oc4cccc(O)c4C3=O)c2c1 [Example 304, (2Z)-4-Hydroxy-2-[(5-methoxy-2-phenyl-1H-indol-3-yl)methylene]-1-benzofuran-3(2H)-one]			
3	144	20.5	130	8.5	COc1ccc2c(c1)c(/C=C1\Oc3cc(O)cc(O)c3C1=O)c(C(=O)N(C)C)n2CCN1CCC(O)C1 (stereo not drawn) [Example 306, 3-[(Z)-(4,6-Dihydroxy-3-oxo-1-benzofuran-2(3H)-ylidene)methyl]-1-[2-(3-hydroxypyrrolidin-1-yl)ethyl]-5-methoxy-N,N-dimethyl-1H-indole-2-carboxamide]			
2.5	1820	72.5	3700	18.5	COc1ccc2c(c1)c(/C=C1\Oc3cc(O)ccc3C1=O)c(C)n2CCCN(C)C [Example 307, (2Z)-2-({1-[3-(Dimethylamino)propyl]-5-methoxy-2-methyl-1H-indol-3-yl}methylene)-6-hydroxy-1-benzofuran-3(2H)-one]			
5.5	1030	23.5	270	25.5	COc1ccc2c(c1)c(/C=C1\Oc3cc(O)cc(O)c3C1=O)cn2CCN1CCN(C)CC1 [Example 308, (2Z)-4,6-Dihydroxy-2-({5-methoxy-1-[2-(4-methylpiperazin-1-yl)ethyl]-1H-indol-3-yl}methylene)-1-benzofuran-3(2H)-one]			
1.5	278	25	14.5	< 2.7	COc1ccc2c(c1)c(/C=C1\Oc3cc(O)cc(O)c3C1=O)c(C(=O)N(C)C)n2CCN1CCN(C)CC1 [Example 316, 3-[(Z)-(4,6-Dihydroxy-3-oxo-1-benzofuran-2(3H)-ylidene)methyl]-5-methoxy-N,N-dimethyl-1-[2-(4-methylpiperazin-1-yl)ethyl]-1H-indole-2-carboxamide]			

SMILES	IC50 (PI3K-delta; read-out: PI3Kδ Avg. IC50) [nM]	IC50 (PI3K-gamma) [nM]	IC50 (PI3K-beta) [nM]	IC50 (human TOR; [1]) [nM]	IC50 (PI3K-alpha; read-out: PI3Kα Avg. IC50) [nM]	IC50 (PI3K-alpha; PI3Kα Avg. IC50) [nM]	IC50 (human TOR; mTOR Kinase Avg. IC50) [nM]	IC50 (PI3K-delta) [nM]
COc1ccc2c(c1)c(C=C1Oc3cc(O)cc(O)c3C1=O)c(C)n2CCN1CCOCC1 [Example 107, 4,6-dihydroxy-2-{[5-methoxy-2-methyl-1-(2-morpholin-4-ylethyl)-1H-indol-3-yl]methylene}-1-benzofuran-3(2H)-one]	5.8	154	112	< 25		11.3		
COc1ccc2c(c1)c(C=C1Oc3cc(O)cc(O)c3C1=O)cn2CCCN1CCOCC1 [Example 112, 4,6-dihydroxy-2-{[5-methoxy-1-(3-morpholin-4-ylpropyl)-1H-indol-3-yl]methylene}-1-benzofuran-3(2H)-one]	6	646	181			42	430	
COc1ccc2c(c1)c(C=C1Oc3cc(O)cc(O)c3C1=O)cn2CCCN1CCN(CCO)CC1 [Example 113, 4,6-dihydroxy-2-[(1-{3-[4-(2-hydroxyethyl)piperazin-1-yl]propyl}-5-methoxy-1H-indol-3-yl)methylene]-1-benzofuran-3(2H)-one]	7	1360	243	1650		37		
COc1ccc2c(c1)c(C=C1Oc3cc(O)cc(O)c3C1=O)cn2CCCN(C)C [Example 114, 2-({1-[3-(dimethylamino)propyl]-5-methoxy-1H-indol-3-yl}methylene)-4,6-dihydroxy-1-benzofuran-3(2H)-one]	11.5	2420	221	2120		40		
COc1ccc2c(c1)c(/C=C1\Oc3cc(O)cc(O)c3C1=O)c(C)n2CCCN(C)C [Example 305, (2Z)-2-({1-[3-(Dimethylamino)propyl]-5-methoxy-2-methyl-1H-indol-3-yl}methylene)-4,6-dihydroxy-1-benzofuran-3(2H)-one]		228	28.5	205		5		5
COc1ccc2[nH]c(-c3ccccc3)c(/C=C3\Oc4cc(O)ccc4C3=O)c2c1 [Example 310, (2Z)-6-Hydroxy-2-[(5-methoxy-2-phenyl-1H-indol-3-yl)methylene]-1-benzofuran-3(2H)-one]	0.9	13.5	11.5	92	< 2.1			
